Data from PMC2880392 (Bioorganic & medicinal chemistry letters, 2010).
Where two headings read alike, the source gives them in different places.

Assays:
Type in all cases: cell-based
[1] = tested on: IIIB strain of HIV-1 (WT); assay: Anti-HIV-1 activity, protection of infected MT-2 cells; settings: for EC50: Human immunodeficiency virus 1, IIIB; for anti-HIV-1 activity in words: wild-type HIV-1, MT-2 cells
[2] = tested on: HIV-1 Y181C variant strain; assay: Anti-HIV-1 activity in MT-2 cells, Y181C variant strain; settings: Human immunodeficiency virus 1, MT2, read-out: Y181C EC50
[3] = tested on: HIV-1 K103N/Y181C variant strain; assay: Anti-HIV-1 activity in MT-2 cells, K103N/Y181C variant strain; settings: Human immunodeficiency virus 1, MT2, read-out: K103N/Y181C EC50
[4] = MT2, read-out: Anti-HIV-1 Activity (EC50)

Clc1cccc(Cl)c1Cc1nnc(Nc2ccc(COCc3ccccc3)cc2)o1 [Compound 1b]
EC50 [1, 4]: > 21 µM
anti-HIV-1 activity in words [1]: inactivity

Clc1cccc(Cl)c1Cc1nnc(Nc2ccc(COCc3ccoc3)cc2)o1 [Compound 1g]
EC50 [1, 4]: > 21 µM

Clc1cccc(Cl)c1Cc1nnc(Nc2ccc(COCc3ccsc3)cc2)o1 [Compound 1h]
EC50 [1, 4]: > 21 µM

OCc1ccc(Nc2ncc(Cc3c(F)cccc3F)o2)cc1Cl [Compound 3m]
enhancement of WT activity by addition of the chlorine (factor) ([1]; 3m versus 3i): 15

[O-][n+]1ccc(OCc2ccc(Nc3ncc(Cc4c(F)cccc4F)o3)cc2Cl)cc1 [Compound 3o]
EC50 [2]: > 2.7 µM
EC50 [3]: > 2.1 µM

N#Cc1ccc(Nc2ncc(Cc3c(F)cccc3F)o2)cc1 [Compound 3p]
EC50 [2]: > 2.7 µM

N#Cc1ccc(Nc2ncc(Cc3c(F)cccc3F)o2)cc1Cl [Compound 3q]
EC50 [3]: > 2.1 µM

Fc1cccc(F)c1Cc1cnc(Nc2ccc(-c3ccncc3)c(Cl)c2)o1 [Compound 3u]
anti-HIV-1 activity in words [1]: good activity

Fc1cccc(F)c1Cc1cnc(Nc2ccc(-c3cccnc3)c(Cl)c2)o1 [Compound 3v]
anti-HIV-1 activity in words [1]: good activity
EC50 [3]: > 2.1 µM

O=C1Nc2ccc(Cl)cc2[C@@](C#CC2CC2)(C(F)(F)F)O1 [evafirenz, reference compound]
EC50 ([1]; MT2, read-out: WT EC50): 0.002 µM

Cc1ccnc2c1NC(=O)c1cccnc1N2C1CC1 [nevirapine, reference compound]
EC50 [3]: > 2.1 µM
